From ChEMBL document CHEMBL3396981, “Synthesis and in vitro biological evaluation of 2-(phenylcarbamoyl)phenyl 4-substituted benzoates” (Bioorg Med Chem, 2015)
In brackets after ≈: the same amount, converted by molar mass.

Assays:
Trichosporon asahii [1] = assay: Antifungal activity against Trichosporon asahii 1188 after 24 hrs by broth microdilution method; format: functional; conditions: Trichosporon asahii, 1188, 24 h
Trichosporon asahii [2] = assay: Antifungal activity against Trichosporon asahii 1188 after 48 hrs by broth microdilution method; format: functional; conditions: Trichosporon asahii, 1188, 48 h
[3] = tested on: Mycobacterium tuberculosis; assay: Antimycobacterial activity against Mycobacterium tuberculosis H37Rv 331/88 after 14 days by microdilution method; format: functional; conditions: H37Rv 331/88, 336 h
[4] = tested on: Mycobacterium tuberculosis; assay: Antimycobacterial activity against Mycobacterium tuberculosis H37Rv 331/88 after 21 days by microdilution method; format: functional; conditions: H37Rv 331/88, 504 h
Mycobacterium avium [5] = assay: Antimycobacterial activity against INH,RIF,OFX,EMB-resistant Mycobacterium avium 330/88 after 14 days by microdilution method; format: functional; conditions: 330/88, 336 h
Mycobacterium avium [6] = assay: Antimycobacterial activity against INH,RIF,OFX,EMB-resistant Mycobacterium avium 330/88 after 21 days by microdilution method; format: functional; conditions: 330/88, 504 h
Mycobacterium kansasii [7] = assay: Antimycobacterial activity against Mycobacterium kansasii 235/80 after 7 days by microdilution method; format: functional; conditions: 235/80, 168 h
Mycobacterium kansasii [8] = assay: Antimycobacterial activity against Mycobacterium kansasii 235/80 after 14 days by microdilution method; format: functional; conditions: 235/80, 336 h
Mycobacterium kansasii [9] = assay: Antimycobacterial activity against Mycobacterium kansasii 235/80 after 21 days by microdilution method; format: functional; conditions: 235/80, 504 h
Mycobacterium kansasii [10] = assay: Antimycobacterial activity against Mycobacterium kansasii 6509/96 after 7 days by microdilution method; format: functional; conditions: 6509/96, 168 h
Mycobacterium kansasii [11] = assay: Antimycobacterial activity against Mycobacterium kansasii 6509/96 after 14 days by microdilution method; format: functional; conditions: 6509/96, 336 h
Mycobacterium kansasii [12] = assay: Antimycobacterial activity against Mycobacterium kansasii 6509/96 after 21 days by microdilution method; format: functional; conditions: 6509/96, 504 h
HepG2 [13] = assay: Cytostatic activity against human HepG2 cells after 72 hrs by MTT assay; format: functional, cell-based; conditions: HepG2, 72 h
HepG2 [14] = assay: Cytotoxicity against human HepG2 cells after 72 hrs by MTT assay; format: cell-based; conditions: HepG2, 72 h
[15] = Selectivity index, ratio of IC50 for human HepG2 cells to MIC for Mycobacterium tuberculosis; format: toxicity, cell-based; conditions: read-out: Selectivity Index
[16] = Selectivity index, ratio of IC50 for human HepG2 cells to MIC for atypical mycobacteria

Compound | MIC (Trichosporon asahii [1]) [µM] | MIC (Trichosporon asahii [2]) [µM] | MIC [3] [µM] | MIC [4] [µM] | MIC (Mycobacterium avium [5]) [µM] | MIC (Mycobacterium avium [6]) [µM] | MIC (Mycobacterium kansasii [7]) [µM] | MIC (Mycobacterium kansasii [8]) [µM] | MIC (Mycobacterium kansasii [9]) [µM] | MIC (Mycobacterium kansasii [10]) [µM] | MIC (Mycobacterium kansasii [11]) [µM] | MIC (Mycobacterium kansasii [12]) [µM] | IC50 (HepG2 [13]) [µM] | IC50 (HepG2 [14]) [µM] | selectivity ratio [15] | Selectivity Index [16]
OC(Cn1cncn1)(Cn1cncn1)c1ccc(F)cc1F [FLUCONAZOLE] | 4 (≈ 1.23 µg/mL) | 9 (≈ 2.76 µg/mL) | – | – | – | – | – | – | – | – | – | – | – | – | – | –
O=C(Oc1ccc(Br)cc1C(=O)Nc1ccc(C(F)(F)F)cc1)c1ccc(Br)cc1 | – | – | 1 (≈ 0.543 µg/mL) | 1 (≈ 0.543 µg/mL) | 8 (≈ 4.35 µg/mL) | 8 (≈ 4.35 µg/mL) | 1 (≈ 0.543 µg/mL) | 2 (≈ 1.09 µg/mL) | 4 (≈ 2.17 µg/mL) | 4 (≈ 2.17 µg/mL) | 4 (≈ 2.17 µg/mL) | 4 (≈ 2.17 µg/mL) | 4.2 | > 50 | > 50 | >6.25
O=C(Oc1ccc(Br)cc1C(=O)Nc1ccc(C(F)(F)F)cc1)c1ccc([N+](=O)[O-])cc1 | – | – | 0.5 (≈ 0.255 µg/mL) | 0.5 (≈ 0.255 µg/mL) | 1 (≈ 0.509 µg/mL) | 2 (≈ 1.02 µg/mL) | 0.5 (≈ 0.255 µg/mL) | 1 (≈ 0.509 µg/mL) | 1 (≈ 0.509 µg/mL) | 0.5 (≈ 0.255 µg/mL) | 0.5 (≈ 0.255 µg/mL) | 1 (≈ 0.509 µg/mL) | 1.25 | > 50 | > 100 | >25
O=C(Nc1ccc(C(F)(F)F)cc1)c1cc(Br)ccc1O | – | – | 1 (≈ 0.36 µg/mL) | 1 (≈ 0.36 µg/mL) | 2 (≈ 0.72 µg/mL) | 2 (≈ 0.72 µg/mL) | 2 (≈ 0.72 µg/mL) | 2 (≈ 0.72 µg/mL) | 4 (≈ 1.44 µg/mL) | 2 (≈ 0.72 µg/mL) | 4 (≈ 1.44 µg/mL) | 4 (≈ 1.44 µg/mL) | – | – | – | –
